Test results published in the OligoGym collection.
Oligonucleotides are written 5' to 3', each unit as a sugar letter and its base; * is a phosphorothioate linkage, no mark a phosphodiester; rarer units and linkages stand in square brackets, end groups in braces. Plain capitals give the bases only. Oligonucleotides are given in HELM: sugar(base)linkage, 5' to 3'; d 2'-deoxyribose, r ribose, m 2'-O-methylribose, p phosphate. ss, as = sense and antisense strand; d = 2'-deoxy (DNA); r = 2'-OH (RNA)

biological target: CDC34; experiment: reporter assay of Huesken 2005; details: siRNA
Note: test concentration or dose not given here.

Going from “RNA1{r(C)p.r(U)p.r(G)p.r(A)p.r(G)p.r(U)p.r(G)p.r(U)p.r(G)p.r(A)p.r(U)p.r(C)p.r(U)p.r(C)p.r(C)p.r(C)p.r(U)p.r(C)p.r(C)p.d(T)p.d(T)}|RNA2{r(G)p.r(G)p.r(A)p.r(G)p.r(G)p.r(G)p.r(A)p.r(G)p.r(A)p.r(U)p.r(C)p.r(A)p.r(C)p.r(A)p.r(C)p.r(U)p.r(C)p.r(A)p.r(G)p.d(G)p.d(A)}$$$RNA1{StrandType:ss}|RNA2{StrandType:as}$” to “RNA1{r(C)p.r(G)p.r(A)p.r(C)p.r(G)p.r(A)p.r(C)p.r(U)p.r(A)p.r(C)p.r(U)p.r(A)p.r(C)p.r(G)p.r(G)p.r(G)p.r(A)p.r(C)p.r(G)p.d(T)p.d(T)}|RNA2{r(C)p.r(G)p.r(U)p.r(C)p.r(C)p.r(C)p.r(G)p.r(U)p.r(A)p.r(G)p.r(U)p.r(A)p.r(G)p.r(U)p.r(C)p.r(G)p.r(U)p.r(C)p.r(G)p.d(T)p.d(A)}$$$RNA1{StrandType:ss}|RNA2{StrandType:as}$”, the normalised inhibition (eCFP-eYFP dual reporter) rises from 23.2% to 62.7%.

First: RNA1{r(C)p.r(G)p.r(C)p.r(G)p.r(U)p.r(G)p.r(A)p.r(C)p.r(A)p.r(C)p.r(U)p.r(G)p.r(G)p.r(U)p.r(G)p.r(G)p.r(A)p.r(C)p.r(G)p.d(T)p.d(T)}|RNA2{r(C)p.r(G)p.r(U)p.r(C)p.r(C)p.r(A)p.r(C)p.r(C)p.r(A)p.r(G)p.r(U)p.r(G)p.r(U)p.r(C)p.r(A)p.r(C)p.r(G)p.r(C)p.r(G)p.d(G)p.d(A)}$$$RNA1{StrandType:ss}|RNA2{StrandType:as}$
Second: RNA1{r(C)p.r(C)p.r(C)p.r(C)p.r(A)p.r(U)p.r(C)p.r(G)p.r(A)p.r(C)p.r(U)p.r(A)p.r(C)p.r(C)p.r(C)p.r(A)p.r(U)p.r(A)p.r(C)p.d(T)p.d(T)}|RNA2{r(G)p.r(U)p.r(A)p.r(U)p.r(G)p.r(G)p.r(G)p.r(U)p.r(A)p.r(G)p.r(U)p.r(C)p.r(G)p.r(A)p.r(U)p.r(G)p.r(G)p.r(G)p.r(G)p.d(A)p.d(A)}$$$RNA1{StrandType:ss}|RNA2{StrandType:as}$
The normalised inhibition (eCFP-eYFP dual reporter) of the first is higher: 67.3% for the first, 44.9% for the second.

biological target: UBE2L3; experiment: reporter assay of Huesken 2005; details: siRNA

Going from “sense rArArCrCrGrArCrCrArArGrUrArArUrCrCrArGdTdT / antisense rCrUrGrGrArUrUrArCrUrUrGrGrUrCrGrGrUrUdTdT” to “sense rCrCrUrArGrCrUrGrArArGrArArUrArCrUrCrUdTdT / antisense rArGrArGrUrArUrUrCrUrUrCrArGrCrUrArGrGdTdC”, the normalised inhibition (eCFP-eYFP dual reporter) falls from 66.6% to 63.9%.

First: sense rArGrCrArCrCrCrGrCrUrUrCrGrGrGrCrUrGrAdTdT / antisense rUrCrArGrCrCrCrGrArArGrCrGrGrGrUrGrCrUdCdA
Second: sense rArCrArUrCrGrArCrGrArArArArGrGrGrGrCrAdTdT / antisense rUrGrCrCrCrCrUrUrUrUrCrGrUrCrGrArUrGrUdTdT
The normalised inhibition (eCFP-eYFP dual reporter) of the first is lower: 37.6% for the first, 64.5% for the second.

Going from “sense rCrGrGrGrCrUrGrArCrCrUrArGrCrUrGrArArGdTdT / antisense rCrUrUrCrArGrCrUrArGrGrUrCrArGrCrCrCrGdAdA” to “sense rCrArGrCrArArCrCrArArArArCrCrGrArCrCrAdTdT / antisense rUrGrGrUrCrGrGrUrUrUrUrGrGrUrUrGrCrUrGdGdC”, the normalised inhibition (eCFP-eYFP dual reporter) falls from 61.3% to 60%.

Compared with “sense rCrCrGrArArGrArUrCrArCrArUrUrUrArArArAdTdT / antisense rUrUrUrUrArArArUrGrUrGrArUrCrUrUrCrGrGdTdG”, “sense rUrArCrCrCrArUrUrCrArArArCrCrArCrCrGrAdTdT / antisense rUrCrGrGrUrGrGrUrUrUrGrArArUrGrGrGrUrAdCdT” is lower in normalised inhibition (eCFP-eYFP dual reporter): 83.4% for the first, 71.8% for the second.

Compared with “sense rArGrCrCrUrGrArGrCrArCrCrCrGrCrUrUrCrGdTdT / antisense rCrGrArArGrCrGrGrGrUrGrCrUrCrArGrGrCrUdGdG”, “sense rUrGrUrCrUrGrCrCrArGrUrArArUrUrArGrUrGdTdT / antisense rCrArCrUrArArUrUrArCrUrGrGrCrArGrArCrAdGdA” is higher in normalised inhibition (eCFP-eYFP dual reporter): 46.3% for the first, 51.7% for the second.

First: sense rCrArGrCrCrUrGrArGrCrArCrCrCrGrCrUrUrCdTdT / antisense rGrArArGrCrGrGrGrUrGrCrUrCrArGrGrCrUrGdGdG
Second: sense rCrArCrCrCrGrCrUrUrCrGrGrGrCrUrGrArCrCdTdT / antisense rGrGrUrCrArGrCrCrCrGrArArGrCrGrGrGrUrGdCdT
The normalised inhibition (eCFP-eYFP dual reporter) of the first is lower: 37.1% for the first, 60% for the second.

Compared with “sense rCrArGrCrArGrArGrUrArCrCrCrArUrUrCrArAdTdT / antisense rUrUrGrArArUrGrGrGrUrArCrUrCrUrGrCrUrGdGdA”, “sense rArArGrCrCrArGrCrArArCrCrArArArArCrCrGdTdT / antisense rCrGrGrUrUrUrUrGrGrUrUrGrCrUrGrGrCrUrUdCdC” is lower in normalised inhibition (eCFP-eYFP dual reporter): 90% for the first, 41.7% for the second.

Going from “sense rArArArCrArArArGrArUrCrUrArUrCrArCrCrCdTdT / antisense rGrGrGrUrGrArUrArGrArUrCrUrUrUrGrUrUrUdTdA” to “sense rUrGrArUrArArGrGrGrArGrCrCrUrUrCrArGrAdTdT / antisense rUrCrUrGrArArGrGrCrUrCrCrCrUrUrArUrCrAdTdA”, the normalised inhibition (eCFP-eYFP dual reporter) rises from 50.1% to 110%.

Going from “sense rCrCrArArArArCrCrGrArCrCrArArGrUrArArUdTdT / antisense rArUrUrArCrUrUrGrGrUrCrGrGrUrUrUrUrGrGdTdT” to “sense rUrCrArUrArGrCrArCrUrGrGrUrGrArArUrGrAdTdT / antisense rUrCrArUrUrCrArCrCrArGrUrGrCrUrArUrGrAdGdG”, the normalised inhibition (eCFP-eYFP dual reporter) falls from 84.6% to 77.5%.

Compared with “sense rArArCrUrGrGrArArGrCrCrArGrCrArArCrCrAdTdT / antisense rUrGrGrUrUrGrCrUrGrGrCrUrUrCrCrArGrUrUdTdT”, “sense rArUrUrUrArArArArCrArArArGrArUrCrUrArUdTdT / antisense rArUrArGrArUrCrUrUrUrGrUrUrUrUrArArArUdGdT” is lower in normalised inhibition (eCFP-eYFP dual reporter): 71.8% for the first, 65.5% for the second.

Going from “sense rCrUrCrArUrArGrCrArCrUrGrGrUrGrArArUrGdTdT / antisense rCrArUrUrCrArCrCrArGrUrGrCrUrArUrGrArGdGdG” to “sense rCrCrUrCrCrArUrArUrGrArUrArArGrGrGrArGdTdT / antisense rCrUrCrCrCrUrUrArUrCrArUrArUrGrGrArGrGdGdT”, the normalised inhibition (eCFP-eYFP dual reporter) rises from 77.1% to 81.2%.

First: sense rGrUrCrUrGrUrCrUrGrCrCrArGrUrArArUrUrAdTdT / antisense rUrArArUrUrArCrUrGrGrCrArGrArCrArGrArCdCdT
Second: sense rArGrArUrCrUrArUrCrArCrCrCrArArArCrArUdTdT / antisense rArUrGrUrUrUrGrGrGrUrGrArUrArGrArUrCrUdTdT
The normalised inhibition (eCFP-eYFP dual reporter) of the first is higher: 91% for the first, 73.1% for the second.

Compared with “sense rArUrUrGrArCrUrUrGrGrCrArArGrGrGrCrUrUdTdT / antisense rArArGrCrCrCrUrUrGrCrCrArArGrUrCrArArUdAdA”, “sense rCrUrGrUrCrUrGrCrCrArGrUrArArUrUrArGrUdTdT / antisense rArCrUrArArUrUrArCrUrGrGrCrArGrArCrArGdAdC” is lower in normalised inhibition (eCFP-eYFP dual reporter): 58.7% for the first, 52.5% for the second.

Going from “sense rCrCrArArGrUrArArUrCrCrArGrUrCrCrCrUrCdTdT / antisense rGrArGrGrGrArCrUrGrGrArUrUrArCrUrUrGrGdTdC” to “sense rCrCrCrGrCrUrUrCrGrGrGrCrUrGrArCrCrUrAdTdT / antisense rUrArGrGrUrCrArGrCrCrCrGrArArGrCrGrGrGdTdG”, the normalised inhibition (eCFP-eYFP dual reporter) rises from 61.4% to 62.3%.

Compared with “sense rCrArUrArGrCrArCrUrGrGrUrGrArArUrGrArCdTdT / antisense rGrUrCrArUrUrCrArCrCrArGrUrGrCrUrArUrGdAdG”, “sense rGrGrCrArArGrGrGrCrUrUrArUrUrGrUrUrCrCdTdT / antisense rGrGrArArCrArArUrArArGrCrCrCrUrUrGrCrCdAdA” is lower in normalised inhibition (eCFP-eYFP dual reporter): 80.9% for the first, 79.4% for the second.

Compared with “sense rCrArArArGrArUrCrUrArUrCrArCrCrCrArArAdTdT / antisense rUrUrUrGrGrGrUrGrArUrArGrArUrCrUrUrUrGdTdT”, “sense rCrArArArArCrCrGrArCrCrArArGrUrArArUrCdTdT / antisense rGrArUrUrArCrUrUrGrGrUrCrGrGrUrUrUrUrGdGdT” is lower in normalised inhibition (eCFP-eYFP dual reporter): 82.8% for the first, 56.2% for the second.

Compared with “sense rArCrCrArArGrUrArArUrCrCrArGrUrCrCrCrUdTdT / antisense rArGrGrGrArCrUrGrGrArUrUrArCrUrUrGrGrUdCdG”, “sense rCrUrGrArGrCrArCrCrCrGrCrUrUrCrGrGrGrCdTdT / antisense rGrCrCrCrGrArArGrCrGrGrGrUrGrCrUrCrArGdGdC” is lower in normalised inhibition (eCFP-eYFP dual reporter): 87.3% for the first, 51.7% for the second.

Going from “sense rCrArArCrCrArArArArCrCrGrArCrCrArArGrUdTdT / antisense rArCrUrUrGrGrUrCrGrGrUrUrUrUrGrGrUrUrGdCdT” to “sense rUrArUrUrGrArCrUrUrGrGrCrArArGrGrGrCrUdTdT / antisense rArGrCrCrCrUrUrGrCrCrArArGrUrCrArArUrAdAdA”, the normalised inhibition (eCFP-eYFP dual reporter) falls from 87% to 75.3%.

Going from “sense rUrCrCrUrGrArCrArArCrCrCrUrCrCrArUrArUdTdT / antisense rArUrArUrGrGrArGrGrGrUrUrGrUrCrArGrGrAdAdC” to “sense rGrCrArGrGrUrCrUrGrUrCrUrGrCrCrArGrUrAdTdT / antisense rUrArCrUrGrGrCrArGrArCrArGrArCrCrUrGrCdCdC”, the normalised inhibition (eCFP-eYFP dual reporter) falls from 69.7% to 52.7%.

First: sense rGrGrUrCrUrGrUrCrUrGrCrCrArGrUrArArUrUdTdT / antisense rArArUrUrArCrUrGrGrCrArGrArCrArGrArCrCdTdG
Second: sense rUrUrCrGrGrGrCrUrGrArCrCrUrArGrCrUrGrAdTdT / antisense rUrCrArGrCrUrArGrGrUrCrArGrCrCrCrGrArAdGdC
The normalised inhibition (eCFP-eYFP dual reporter) of the first is higher: 74.3% for the first, 49% for the second.

First: sense rArUrCrGrArCrGrArArArArGrGrGrGrCrArGrGdTdT / antisense rCrCrUrGrCrCrCrCrUrUrUrUrCrGrUrCrGrArUdGdT
Second: sense rGrGrArArGrCrCrArGrCrArArCrCrArArArArCdTdT / antisense rGrUrUrUrUrGrGrUrUrGrCrUrGrGrCrUrUrCrCdAdG
The normalised inhibition (eCFP-eYFP dual reporter) of the first is lower: 32% for the first, 73% for the second.
